The source of these data is PubChem BioAssay AID248 (DTP/NCI, 2004).

The subject of the assay is L1210 leukemia ip in BDF1 mice, survival T/C. Put plainly: NCI In Vivo Anticancer Drug Screen. Data for tumor model L1210 Leukemia (intraperitoneal) in B6D2F1 (BDF1) mice. Conditions: higher = longer survival. The gist of the method:
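Each compound was tested against a transplantable tumor grown in mice. The endpoint was survival, with treated animals benchmarked against vehicle controls as a simple ratio.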

Setting [1] is: endpoint: mean survival time, dose: 100.0 mg/kg/injection, schedule: Q04DX003 (ip), vehicle: saline.
Where [2] appears, read: endpoint: mean survival time, dose: 200.0 mg/kg/injection, schedule: Q01DX009 (ip), vehicle: Klucel (hydroxypropylcellulose) (HPC).
Where [3] appears, read: endpoint: mean survival time, dose: 200.0 mg/kg/injection, schedule: Q04DX003 (ip), vehicle: saline.
[4] abbreviates: endpoint: mean survival time, dose: 400.0 mg/kg/injection, schedule: Q01DX001 (ip), vehicle: carboxymethylcellulose (CMC).
The mark [5] stands for this setting: endpoint: mean survival time, dose: 400.0 mg/kg/injection, schedule: Q04DX003 (ip), vehicle: saline.

“And” between values parts separate entries of the source, which are not always exact repeats. Identical values can stand only once. Inconclusive results and toxic doses are left out.

`CCN(CC)CCNc1ccc(CO)c2sc3ccccc3c(=O)c12`: the T/C runs as follows: (endpoint: mean survival time, dose: 8.0 mg/kg/injection, schedule: Q01DX009 (ip), vehicle: clinical formulation) 108 % of control; (endpoint: mean survival time, dose: 8.0 mg/kg/injection, schedule: Q01DX009 (ip), vehicle: water) 106 % of control; (endpoint: mean survival time, dose: 16.0 mg/kg/injection, schedule: Q01DX009 (ip), vehicle: clinical formulation) 112 % of control; (endpoint: mean survival time, dose: 16.0 mg/kg/injection, schedule: Q01DX009 (ip), vehicle: water) 92 % of control; (endpoint: mean survival time, dose: 18.75 mg/kg/injection, schedule: Q01DX009 (ip), vehicle: saline) 118 % of control; (endpoint: mean survival time, dose: 22.0 mg/kg/injection, schedule: Q01DX009 (ip), vehicle: saline) 115 % of control. Besides, the T/C was 121 % of control (endpoint: mean survival time, dose: 32.0 mg/kg/injection, schedule: Q01DX009 (ip), vehicle: clinical formulation); 117 % of control (endpoint: mean survival time, dose: 32.0 mg/kg/injection, schedule: Q01DX009 (ip), vehicle: water); 123 % of control (endpoint: mean survival time, dose: 35.0 mg/kg/injection, schedule: Q01DX009 (ip), vehicle: saline); 90 % of control (endpoint: mean survival time, dose: 50.0 mg/kg/injection, schedule: Q04DX003 (ip), vehicle: saline); 164 % of control (endpoint: mean survival time, dose: 64.0 mg/kg/injection, schedule: Q01DX009 (ip), vehicle: clinical formulation); 157 % of control (endpoint: mean survival time, dose: 64.0 mg/kg/injection, schedule: Q01DX009 (ip), vehicle: water). The T/C runs as follows: (endpoint: mean survival time, dose: 81.0 mg/kg/injection, schedule: Q01DX009 (ip), vehicle: Klucel (hydroxypropylcellulose) (HPC)) 120 % of control; (endpoint: mean survival time, dose: 100.0 mg/kg/injection, schedule: Q01DX001 (ip), vehicle: saline) 102 % of control; under setting [1], 106 % of control; (endpoint: mean survival time, dose: 112.0 mg/kg/injection, schedule: Q01DX009 (ip), vehicle: saline) 98 % of control and 105 % of control; (endpoint: mean survival time, dose: 122.0 mg/kg/injection, schedule: Q01DX009 (ip), vehicle: Klucel (hydroxypropylcellulose) (HPC)) 112 % of control; (endpoint: mean survival time, dose: 128.0 mg/kg/injection, schedule: Q01DX009 (ip), vehicle: clinical formulation) 91 % of control. The T/C reads like this: (endpoint: mean survival time, dose: 128.0 mg/kg/injection, schedule: Q01DX009 (ip), vehicle: water) 110 % of control; (endpoint: mean survival time, dose: 150.0 mg/kg/injection, schedule: Q01DX009 (ip), vehicle: saline) 93 % of control; (endpoint: mean survival time, dose: 200.0 mg/kg/injection, schedule: Q01DX001 (ip), vehicle: saline) 110 % of control; under setting [2], 120 % of control; under setting [3], 173 % of control; (endpoint: mean survival time, dose: 264.0 mg/kg/injection, schedule: Q01DX001 (ip), vehicle: carboxymethylcellulose (CMC)) 112 % of control. Also, the T/C is, setting by setting: (endpoint: mean survival time, dose: 264.0 mg/kg/injection, schedule: Q01DX009 (ip), vehicle: carboxymethylcellulose (CMC)) 124 % of control; (endpoint: mean survival time, dose: 300.0 mg/kg/injection, schedule: Q04DX003 (ip), vehicle: saline) 184 % of control; under setting [4], 157 % of control; (endpoint: median survival time, dose: 4.0 mg/kg/injection, schedule: Q01DX009 (ip), vehicle: saline) 90 % of control; (endpoint: median survival time, dose: 4.0 mg/kg/injection, schedule: Q03HX016 (ip), vehicle: saline) 100 % of control; (endpoint: median survival time, dose: 4.0 mg/kg/injection, schedule: Q03HX024 (ip), vehicle: saline) 100 % of control. The T/C by setting is: (endpoint: median survival time, dose: 8.0 mg/kg/injection, schedule: Q01DX009 (ip), vehicle: saline) 100 % of control; (endpoint: median survival time, dose: 8.0 mg/kg/injection, schedule: Q03HX008 (ip), vehicle: saline) 100 % of control; (endpoint: median survival time, dose: 8.0 mg/kg/injection, schedule: Q03HX016 (ip), vehicle: saline) 100 % of control; (endpoint: median survival time, dose: 8.0 mg/kg/injection, schedule: Q03HX024 (ip), vehicle: saline) 105 % of control; (endpoint: median survival time, dose: 16.0 mg/kg/injection, schedule: Q01DX009 (ip), vehicle: saline) 110 % of control; (endpoint: median survival time, dose: 16.0 mg/kg/injection, schedule: Q01DX009 (sc), vehicle: saline) 100 % of control. Also, the T/C runs as follows: (endpoint: median survival time, dose: 16.0 mg/kg/injection, schedule: Q03HX008 (ip), vehicle: saline) 110 % of control; (endpoint: median survival time, dose: 16.0 mg/kg/injection, schedule: Q03HX016 (ip), vehicle: saline) 100 % of control; (endpoint: median survival time, dose: 32.0 mg/kg/injection, schedule: Q01DX001 (ip), vehicle: saline) 100 % of control; (endpoint: median survival time, dose: 32.0 mg/kg/injection, schedule: Q01DX009 (oral), vehicle: saline) 100 % of control and 120 % of control; (endpoint: median survival time, dose: 32.0 mg/kg/injection, schedule: Q01DX009 (sc), vehicle: saline) 115 % of control; (endpoint: median survival time, dose: 32.0 mg/kg/injection, schedule: Q04DX003 (ip), vehicle: saline) 100 % of control. The T/C was 100 % of control (endpoint: median survival time, dose: 32.0 mg/kg/injection, schedule: Q08DX002 (ip), vehicle: saline); 100 % of control (endpoint: median survival time, dose: 64.0 mg/kg/injection, schedule: Q01DX001 (ip), vehicle: saline); 100 % of control (endpoint: median survival time, dose: 64.0 mg/kg/injection, schedule: Q01DX001 (sc), vehicle: saline); 115 % of control (endpoint: median survival time, dose: 64.0 mg/kg/injection, schedule: Q01DX009 (oral), vehicle: saline); 110 % of control (endpoint: median survival time, dose: 64.0 mg/kg/injection, schedule: Q04DX003 (ip), vehicle: saline); 100 % of control (endpoint: median survival time, dose: 64.0 mg/kg/injection, schedule: Q08DX002 (ip), vehicle: saline). Besides, the T/C (endpoint: median survival time, dose: 128.0 mg/kg/injection, schedule: Q01DX001 (ip), vehicle: saline) is 110 % of control; the T/C (endpoint: median survival time, dose: 128.0 mg/kg/injection, schedule: Q01DX001 (sc), vehicle: saline) was 105 % of control; the T/C (endpoint: median survival time, dose: 128.0 mg/kg/injection, schedule: Q01DX009 (oral), vehicle: saline) is 120 % of control; the T/C (endpoint: median survival time, dose: 128.0 mg/kg/injection, schedule: Q01DX009 (sc), vehicle: saline) is 95 % of control; the T/C (endpoint: median survival time, dose: 256.0 mg/kg/injection, schedule: Q01DX001 (oral), vehicle: saline) is 110 % of control and 120 % of control; the T/C (endpoint: median survival time, dose: 256.0 mg/kg/injection, schedule: Q01DX009 (oral), vehicle: saline) was 100 % of control. For the same compound, for the setting “endpoint: median survival time, dose: 512.0 mg/kg/injection, schedule: Q01DX001 (oral), vehicle: saline”, the T/C was 110 % of control and 120 % of control.

On to `CC(=O)Oc1c(Br)c(-c2c(C)cc(C)c(Br)c2C)c(OC(C)=O)c(Br)c1-c1c(C)cc(C)c(Br)c1C`, for which the T/C reads like this: (endpoint: mean survival time, dose: 100.0 mg/kg/injection, schedule: Q01DX009 (ip), vehicle: Klucel (hydroxypropylcellulose) (HPC)) 97 % of control; under setting [1], 113 % of control; under setting [2], 96 % of control; under setting [3], 95 % of control; (endpoint: mean survival time, dose: 400.0 mg/kg/injection, schedule: Q01DX009 (ip), vehicle: Klucel (hydroxypropylcellulose) (HPC)) 97 % of control; under setting [5], 101 % of control.

For `C=CC(=O)Oc1ccc([N+](=O)[O-])cc1`, the T/C was 100 % of control (endpoint: mean survival time, dose: 12.0 mg/kg/injection, schedule: Q01DX009 (ip), vehicle: saline); 117 % of control (endpoint: mean survival time, dose: 25.0 mg/kg/injection, schedule: Q01DX009 (ip), vehicle: saline); 114 % of control (endpoint: mean survival time, dose: 50.0 mg/kg/injection, schedule: Q01DX009 (ip), vehicle: saline); 100 % of control under setting [3]; 108 % of control under setting [5].

`Cn1ncc2c(NCc3ccccc3Cl)ncnc21`: the T/C reads like this: (endpoint: mean survival time, dose: 25.0 mg/kg/injection, schedule: Q01DX009 (ip), vehicle: saline with Tween-80) 102 % of control; (endpoint: mean survival time, dose: 50.0 mg/kg/injection, schedule: Q01DX009 (ip), vehicle: saline with Tween-80) 108 % of control; (endpoint: mean survival time, dose: 100.0 mg/kg/injection, schedule: Q01DX009 (ip), vehicle: saline with Tween-80) 124 % of control; (endpoint: mean survival time, dose: 200.0 mg/kg/injection, schedule: Q01DX009 (ip), vehicle: other) 93 % of control.

As for `CN(C)S(=O)(=O)c1ccccc1C(O)(c1ccccc1)c1ccccc1`, the T/C by setting is: (endpoint: mean survival time, dose: 100.0 mg/kg/injection, schedule: Q01DX001 (ip), vehicle: carboxymethylcellulose (CMC)) 95 % of control; (endpoint: mean survival time, dose: 200.0 mg/kg/injection, schedule: Q01DX001 (ip), vehicle: carboxymethylcellulose (CMC)) 93 % of control; under setting [4], 98 % of control.
